Source: patent US20040097433A1, “Chroman derivatives for the reduction of inflammation symptoms” (priority 2002, published 2004)

Legend:
[1] = system: ELAM (E-selectin); experiment: Cell-ELAM (E-selectin) assay; type: cell-based; conditions: Endothelial cell, 6 h, endothelial cells stimulated with LPS and IL-1β for 6 hours; E-selectin antibody ELISA; read-out: EC50 for reducing the expression of ELAM
Description: Another useful cell screening assay, exemplified herein in Example 1B, is the E-selectin (ELAM) production assay, which measures activity of test compounds in reducing expression of ELAM in activated endothelial cells. Briefly, endothelial cells are activated by adding known activators such as lipopolysaccharide, TNF-α, or IL-1β, alone or in some combination. Activated cells produce ELAM, which can be measured using, for example, an E-selectin monoclonal antibody-based ELISA assay. In studies carried out in support of the present invention, ELAM production was decreased. As described herein, chroman derivatives were able to reduce ELAM production in an assay such as the one described in Example 1B.
B. Cell-ELAM Assay. Endothelial-Leukocyte Adhesion Molecule (ELAM), also known as E-selectin, is expressed on the surface of endothelial cells. In this assay, lipopolysaccharide (LPS) and IL-1β are used to stimulate the expression of ELAM; test agents are tested for their abilities to reduce this expression, in accordance with studies showing that reduction of leukocyte adhesion to endothelial cell surface is associated with decreased cellular damage (e.g., Takada, M., Et al., Transplantation 64: 1520-25, 1997; Steinberg, J. B., et al., J. Heart Lung Trans. 13:306-313, 1994).
Endothelial cells may be selected from any of a number of sources and cultured according to methods known in the art; including, for example, coronary artery endothelial cells, human brain microvascular endothelial cells (HBMEC; Hess, D. C., et al., Neurosci. Lett. 213(1): 37-40,1996), or lung endothelial cells. Cells are conveniently cultured in 96-well plates. […] Wells are allowed to develop for 35 minutes, before measurement at 402 nm in a Fluoroskan® Reader with shake program for 10 seconds. Positive results are recorded as a decrease in ELAM concentration in tested wells, as compared to control wells.

[2] = system: CD-1 mice; experiment: Arachidonic acid ear inflammation model; type: in vivo, mouse; conditions: topical to left ear, 20 μL in 70% ethanol/30% propylene glycol; ear punch weight difference one hour after treatment
Procedure: This assay measures the ability of test compounds to prevent or reduce inflammation secondary to oxazolone or arachidonic acid.
A. Arachidonic acid. Albino male CD-1 mice, 7-9 weeks old were used in this test. A 20% (w/v) arachidonic acid solution in acetone was prepared. Twenty microliters of the arachidonic acid solution was applied to the dorsal left ear of the mouse. Immediately thereafter, test compounds (20 μL in 70% ethanol/30% propylene glycol) were applied to the left ear. The untreated right ears served as control. Mice are sacrificed by CO2 inhalation, one hour after treatment. The left and right ears were removed and 7 mm punch biopsies taken from each. The punch biopsies were weighed, and the differences calculated.

[3] = system: CRP; experiment: Human Hep3B cells CRP assay; type: cell-based; conditions: for reduction of CRP levels (in words): CRP assay of Example 1A; for EC50: Homo sapiens, 72 h, Hep3B cells stimulated with IL-1β, IL-6 and dexamethasone, three days, CRP ELISA on supernatant, normalized to cell count, read-out: EC50 for reducing CRP levels
Procedure: In studies carried out in support of the present invention, a combination of Interleukin-1β, IL-6, and dexamethasone is used to induce CRP production, and counter-agents are tested for their ability to reduce this production in cultured liver cells, as detailed in Example 1A. The assay is performed on cells grown in 96-well format allowing high throughput screening of compounds. As described herein, chroman derivatives were able to reduce CRP levels in an assay such as the one described in Example 1A.
A. Human Hep3B Cells—CRP assay. Hep3B Cell Line is obtained from the American Type Culture Collection (ATCC Catalog No. HB-8064). The Hep3B cell line was derived from liver tissue of […]. The cells are epithelial in morphology and produce tumors in nude mice. The cells produce α-fetoprotein, hepatitis B surface antigen, albumin, α-2-macroglobulin, α-1-antitrypsin, transferrin, plasminogen, complement C3 and β-lipoprotein (Knowles B B, et al., Science, 1980, 209:497499). This cell line has been widely used to study hepatocyte cytokine and acute phase protein release (e.g., Damtew B, et al., 1993, J. Immunol. 150:4001-4007).
HEP3B cells are grown in Minimum Essential Medium (MEM; GIBCO) supplemented with 10% Fetal Bovine Serum (FBS; Hyclone), 1× Penicillin/Streptomycin (GIBCO, Cat#. 15140-122) and 0.1 mM non-essential amino acids (GIBCO, Catalog No. 11140-050). Cells are thawed and transferred to warm medium according to standard methods known in the art.
Cells are incubated in flasks at 37° C. with 5% CO2 in an air atmosphere incubator. HEP3B growth media is changed every 2 days until the cells reach 70-80% confluence (approx. 3-4 days). For assay, the cells are transferred to 96-well plates, seeded at 5000 cells per well in culture media, and left to grow for 7 days in a 37° C. incubator (air supplemented with 5% CO2). Media is replaced daily until assay. […]
100 μl HRP-conjugated rabbit anti-human CRP (DAKO) diluted 1:500 (in CRP wash buffer) is added to each well, followed by incubation for 30 minutes at 37° C. […] Finally, 50 μl of 1M H2SO4 is added to each well and absorbance at 450 nm is immediately measured in a microtiter spectrophotometer.
CRP measured as above is normalized to cell count per well, using a cell viability assay, such as the Cell Tracker Green assay. […] Plates are immediately read using a Fluoroskan® flourometer with a 485 excitation/538 emission filter pair.

Structure (SMILES): COC(=O)CCC1(C)CCc2c(Br)c(O)c(C)c(C)c2O1 (stereo not drawn) [3-(5-Bromo-6-hydroxy-2,7,8-trimethyl-chroman-2-yl)-propionic acid methyl ester]
- EC50 [1]: 10 to 100 µM
- protection in arachidonic acid ear inflammation assay [2]: about 40%

Structure (SMILES): Cc1c(O)cc2c(c1C)OC(C)(CCC(=O)O)CC2 (stereo not drawn) [3-(6-hydroxy-2,7,8-trimethyl-chroman-2-yl)-propionic acid]
- reduction of CRP levels (in words) [3]: effective at reducing CRP levels
- EC50 [3]: 40 to 60 µM

Structure (SMILES): COC(=O)CCC1(C)CCc2cc(O)c(C)c(C)c2O1 (stereo not drawn) [3-(6-hydroxy-2,7,8-trimethyl-chroman-2-yl)propionic acid methyl ester]
- reduction of CRP levels (in words) [3]: effective at reducing CRP levels
- EC50 [3]: 10 to 30 µM

Structure (SMILES): CC1(CCC(=O)O)CCc2ccc(O)c(O)c2O1 (stereo not drawn) [3-(7,8-Dihydroxy-2-methyl-chroman-2-yl)-propionic acid]
- EC50 [1]: 10 to 100 µM
- protection in arachidonic acid ear inflammation assay [2]: about 40%

Structure (SMILES): Cc1c(C)c2c(c(C)c1O)CCC(C)(C(=O)NCC1C3CC4CC(C3)CC1C4)O2 (stereo not drawn) [6-Hydroxy-2,5,7,8-tetramethyl-chroman-2-carboxylic acid (adamantan-2-ylmethyl)-amide]
- EC50 [1]: 10 to 100 µM
